Laboratory results taken from paper PMC10931659, “Structural Characterization and Functional Analysis of Mevalonate Kinase from Tribolium castaneum (Red Flour Beetle)” (International Journal of Molecular Sciences, 2024).

B1: TcMevK (Tribolium castaneum) (protein)
chain: MSKIRVSAPGKVILHGEHSVVYDKLAVAASLGLRTRLEYCEEGAGLRVEFGDLGLTQCYNFKDVHQLLSTQIPLTQPTAYYNLTHPELLDHDKITEIVEKFVDLNRHEPKQRQALVSFFYLFFAIVGSTDSNLSDGFKLAVRSDLTVGAGTGSSASFAVAIAAFLLHFVKVKKFKSKNLYKSLDLNVDNLQNFDTTELDLVSKWAFQSERIIHGTPSGVDNTICTFGGLVSFRKGTRPQKITLSSKITLILIDTNTPRDTKTLVGKVATKRAKYRPIIDAILDAMDHTTISALDYFQKMETSDVSGETYDALGELADLNQNLLRCLGVSHPKLDQACEILATFGLHCKLTGAGGGGCAICVVPPSVKGVEKAITELKLNGFGAVLTDLGGCGVRVD
notes: N-terminal His6 tag (pET28a-derived vector), expressed in E. coli BL21(DE3), Ni-chelating and Superdex 200 purified

Tests used:
[1] = target: T1, TcMevK (Tribolium castaneum, UniProt D2A4R0, V264A); test: intrinsic fluorescence quenching, excitation […] nm; assay type: binding; conditions: read-out: KD Value for Mev
T1 construct: gene AUGUSTUS-3.0.2_15408; N-terminal His6 tag (pET28a-derived vector), expressed in E. coli BL21(DE3), Ni-chelating and Superdex 200 purified
T1 sequence (D2A4R0 1-396 V264A): B1 chain

[2] = target: T2, TcMevK (Tribolium castaneum, UniProt D2A4R0, S217A); test: intrinsic fluorescence quenching, excitation […] nm; assay type: binding; conditions: read-out: KD Value for Mev
T2 construct: gene AUGUSTUS-3.0.2_15408; N-terminal His6 tag (pET28a-derived vector), expressed in E. coli BL21(DE3), Ni-chelating and Superdex 200 purified
T2 sequence (D2A4R0 1-396 S217A): B1 chain

[3] = target: T3, TcMevK (Tribolium castaneum, UniProt D2A4R0, D220A); test: intrinsic fluorescence quenching, excitation […] nm; assay type: binding; conditions: read-out: KD Value for Mev
T3 construct: gene AUGUSTUS-3.0.2_15408; N-terminal His6 tag (pET28a-derived vector), expressed in E. coli BL21(DE3), Ni-chelating and Superdex 200 purified
T3 sequence (D2A4R0 1-396 D220A): B1 chain

[4] = target: T4, TcMevK (Tribolium castaneum, UniProt D2A4R0); test: intrinsic fluorescence quenching, excitation […] nm; assay type: binding; conditions: read-out: KD Value for Mev
T4 construct: gene AUGUSTUS-3.0.2_15408; N-terminal His6 tag (pET28a-derived vector), expressed in E. coli BL21(DE3), Ni-chelating and Superdex 200 purified
T4 sequence (D2A4R0 1-396): B1 chain

[5] = target: T5, TcMevK (Tribolium castaneum, UniProt D2A4R0, K11A); test: intrinsic fluorescence quenching, excitation […] nm; assay type: binding; conditions: read-out: KD Value for Mev
T5 construct: gene AUGUSTUS-3.0.2_15408; N-terminal His6 tag (pET28a-derived vector), expressed in E. coli BL21(DE3), Ni-chelating and Superdex 200 purified
T5 sequence (D2A4R0 1-396 K11A): B1 chain

[6] = target: T6, TcMevK (Tribolium castaneum, UniProt D2A4R0, K234A); test: intrinsic fluorescence quenching, excitation […] nm; assay type: binding; conditions: read-out: KD Value for Mev
T6 construct: gene AUGUSTUS-3.0.2_15408; N-terminal His6 tag (pET28a-derived vector), expressed in E. coli BL21(DE3), Ni-chelating and Superdex 200 purified
T6 sequence (D2A4R0 1-396 K234A): B1 chain

[7] = target: T7, TcMevK (Tribolium castaneum, UniProt D2A4R0, V21A); test: intrinsic fluorescence quenching, excitation […] nm; assay type: binding; conditions: read-out: KD Value for Mev
T7 construct: gene AUGUSTUS-3.0.2_15408; N-terminal His6 tag (pET28a-derived vector), expressed in E. coli BL21(DE3), Ni-chelating and Superdex 200 purified
T7 sequence (D2A4R0 1-396 V21A): B1 chain

[8] = substrate: C[C@@](O)(CCO)CC(=O)O; test: purified protein; assay type: biochemical, Tribolium castaneum; conditions: 5 mM ATP, 16 mM MgCl2, 75 mM KCl; Mev 0–500 μM; pH and temperature not stated for this assay

Row | Molecule | Kd [1] | Kd [2] | Kd [3] | Kd [4] | Kd [5] | Kd [6] | Kd [7] | Km [8]
1 | C[C@@](O)(CCO)CC(=O)O [mevalonate] | 57.1 ± 1.83 µM | 70.2 ± 1.06 µM | 47.5 ± 2.17 µM | 30 ± 0.93 µM | 75.8 ± 0.84 µM | 89.5 ± 2.45 µM | 51.7 ± 2.16 µM | 
2 | B1 |  |  |  |  |  |  |  | 32.71 ± 1.09 µM
